Data taken from ChEMBL document CHEMBL4325874, “Design and synthesis of histamine H3/H4 receptor ligands with a cyclopropane scaffold” (Bioorg Med Chem Lett, 2018).
pKi: −log10 of the molar value.

Columns and labels:
[1] = molecular target: Histamine H3 receptor (Homo sapiens, UniProt Q9Y5N1); assay: Displacement of [3H]Nalpha-methylhistamine from human recombinant histamine H3 receptor expressed in CHO cell membranes after 30 mins by liquid scintillation analysis
[2] = molecular target: Histamine H4 receptor (Homo sapiens, UniProt Q9H3N8); assay: Displacement of [3H]histamine from human recombinant histamine H4 receptor expressed in CHO cell membranes after 30 mins by liquid scintillation analysis
Chain of Histamine H4 receptor (Q9H3N8 whole entry): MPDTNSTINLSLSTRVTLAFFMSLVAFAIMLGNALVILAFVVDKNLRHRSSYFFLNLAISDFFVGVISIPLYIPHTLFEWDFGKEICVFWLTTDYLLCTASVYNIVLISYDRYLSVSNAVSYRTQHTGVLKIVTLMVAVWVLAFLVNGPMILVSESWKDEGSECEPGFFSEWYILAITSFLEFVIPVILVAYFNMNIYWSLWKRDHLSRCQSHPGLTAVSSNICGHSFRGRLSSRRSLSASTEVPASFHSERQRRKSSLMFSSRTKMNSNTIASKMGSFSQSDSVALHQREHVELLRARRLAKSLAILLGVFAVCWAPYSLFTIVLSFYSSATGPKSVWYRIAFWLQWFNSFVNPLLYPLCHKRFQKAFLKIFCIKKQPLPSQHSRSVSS

Chain of Histamine H3 receptor (Q9Y5N1 whole entry): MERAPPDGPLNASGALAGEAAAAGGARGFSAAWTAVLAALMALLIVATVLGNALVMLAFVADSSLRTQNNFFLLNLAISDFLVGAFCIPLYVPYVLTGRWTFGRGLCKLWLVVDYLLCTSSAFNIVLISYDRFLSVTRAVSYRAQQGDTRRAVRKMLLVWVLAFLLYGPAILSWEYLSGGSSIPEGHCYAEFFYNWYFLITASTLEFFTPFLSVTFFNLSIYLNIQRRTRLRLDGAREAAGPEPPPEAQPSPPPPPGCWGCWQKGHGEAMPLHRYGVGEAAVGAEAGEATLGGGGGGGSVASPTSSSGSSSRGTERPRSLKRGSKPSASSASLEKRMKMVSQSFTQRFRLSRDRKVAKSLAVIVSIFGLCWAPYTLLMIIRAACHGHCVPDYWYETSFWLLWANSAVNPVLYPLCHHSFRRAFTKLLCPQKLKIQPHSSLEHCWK

Compound | pKi [1] | pKi [2]
Clc1ccc(CNCC[C@@H]2C[C@H]2c2nc3cc(Cl)ccc3[nH]2)cc1 | < 6.00 | < 6.00
Clc1ccc(CNC[C@@H]2C[C@H]2c2nc3cc(Cl)ccc3[nH]2)cc1 | < 6.00 | < 6.00
CN1CCN([C@@H]2C[C@@H]2CNCc2ccc(Cl)cc2)CC1 | < 6.00 | < 6.00
Clc1ccc(CNC[C@@H]2C[C@@H]2c2cc3cc(Cl)ccc3[nH]2)cc1 | < 6.00 | < 6.00
CN1CCN([C@@H]2C[C@@H]2CCNCc2ccc(Cl)cc2)CC1 | < 6.00 | < 6.00
Clc1ccc(CNCC[C@H]2C[C@H]2N2CCNCC2)cc1 | < 6.00 | < 6.00
c1ccc2[nH]c(C[C@@H]3C[C@H]3c3c[nH]cn3)nc2c1 | 6.73 | 6.53
Clc1ccc(CNC[C@H]2C[C@H]2N2CCNCC2)cc1 | < 6.00 | < 6.00
Clc1ccc(CNCC[C@@H]2C[C@@H]2c2cc3cc(Cl)ccc3[nH]2)cc1 | < 6.00 | < 6.00
c1ccc2[nH]c(CNCC[C@@H]3C[C@H]3c3c[nH]cn3)nc2c1 | 7.28 | 6.78
